Legend:
Test in all cases: relative viability (nuclei count vs DMSO), 5 days (fraction); higher = more cells survive
[1] = tested on: ChaGo-K-1
How it was run: (§1)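 Relative viability equals treated-well nuclei counts divided by vehicle-well nuclei counts. Counts came from 4× images of lung cancer cell lines grown in 1536-well plates for 5 days after pin-tool dosing on the day after seeding. Dosing used one drug alone or a fixed anchor-drug dose plus five library-drug doses (not always all listed) in √10 steps, and values are medians of duplicate plates.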

[2] = tested on: EKVX
How it was run: as §1

[3] = tested on: EMC-BAC-2
How it was run: as §1

[4] = tested on: EPLC-272H
How it was run: as §1

[5] = tested on: HCC-78
How it was run: as §1

[6] = tested on: HCC-827
How it was run: as §1

[7] = tested on: LCLC-103H
How it was run: as §1

[8] = tested on: LK-2
How it was run: as §1

[9] = tested on: LU99A
How it was run: as §1

[10] = tested on: NCI-H1563
How it was run: as §1

[11] = tested on: NCI-H1666
How it was run: as §1

[12] = tested on: NCI-H1975
How it was run: as §1

[13] = tested on: NCI-H2126
How it was run: as §1

[14] = tested on: NCI-H2342
How it was run: as §1

[15] = tested on: NCI-H23
How it was run: as §1

[16] = tested on: NCI-H2405
How it was run: as §1

[17] = tested on: NCI-H322M
How it was run: as §1

[18] = tested on: PC-14
How it was run: as §1

[19] = tested on: RERF-LC-KJ
How it was run: as §1

[20] = tested on: SK-LU-1
How it was run: as §1

[21] = tested on: SW 1573
How it was run: as §1

[22] = tested on: SW 900
How it was run: as §1

`Nc1ccn([C@@H]2O[C@H](CO)[C@@H](O)[C@@H]2O)c(=O)n1` [Cytarabine] + COc1cc2c(Oc3ccc(NC(=O)C4(C(=O)Nc5ccc(F)cc5)CC4)cc3F)ccnc2cc1OCCCN1CCOCC1 [Foretinib] (partner 0.25 µM) showed a relative viability ([1]; first compound 0.005 µM) of 0.734, a relative viability ([1]; first compound 0.01581 µM) of 0.59 and a relative viability ([1]; first compound 0.05 µM) of 0.391. For the same compound, the relative viability ([1]; first compound 0.1581 µM) was 0.259, the relative viability ([1]; first compound 0.5 µM) was 0.251 and the relative viability ([2]; first compound 0.005 µM) was 0.866. For the same compound, the relative viability ([2]; first compound 0.01581 µM) was 0.594, the relative viability ([2]; first compound 0.05 µM) was 0.622 and the relative viability ([2]; first compound 0.1581 µM) was 0.413. For the same compound, the relative viability ([2]; first compound 0.5 µM) was 0.793, the relative viability ([3]; first compound 0.005 µM) was 0.954 and the relative viability ([3]; first compound 0.01581 µM) was 0.831. For the same compound, the relative viability ([3]; first compound 0.05 µM) was 0.305, the relative viability ([3]; first compound 0.1581 µM) was 0.282 and the relative viability ([3]; first compound 0.5 µM) was 0.226. For the same compound, the relative viability ([4]; first compound 0.005 µM) was 0.639, the relative viability ([4]; first compound 0.01581 µM) was 0.477 and the relative viability ([4]; first compound 0.05 µM) was 0.461. The relative viability ([4]; first compound 0.1581 µM) was 0.196, the relative viability ([4]; first compound 0.5 µM) was 0.234 and the relative viability ([5]; first compound 0.005 µM) was 0.601. The relative viability ([5]; first compound 0.01581 µM) was 0.482, the relative viability ([5]; first compound 0.05 µM) was 0.524 and the relative viability ([5]; first compound 0.1581 µM) was 0.378. It also gave a relative viability ([5]; first compound 0.5 µM) of 0.372, a relative viability ([6]; first compound 0.005 µM) of 0.721 and a relative viability ([6]; first compound 0.01581 µM) of 0.424. For the same compound, the relative viability ([6]; first compound 0.05 µM) was 0.368, the relative viability ([6]; first compound 0.1581 µM) was 0.169 and the relative viability ([6]; first compound 0.5 µM) was 0.177. The relative viability ([7]; first compound 0.005 µM) was 0.849, the relative viability ([7]; first compound 0.01581 µM) was 0.817 and the relative viability ([7]; first compound 0.05 µM) was 0.96. The relative viability ([7]; first compound 0.1581 µM) was 0.604, the relative viability ([7]; first compound 0.5 µM) was 0.57 and the relative viability ([8]; first compound 0.005 µM) was 1.33. The relative viability ([8]; first compound 0.01581 µM) was 0.683, the relative viability ([8]; first compound 0.05 µM) was 0.741 and the relative viability ([8]; first compound 0.1581 µM) was 0.309. For the same compound, the relative viability ([8]; first compound 0.5 µM) was 0.282, the relative viability ([9]; first compound 0.005 µM) was 0.762 and the relative viability ([9]; first compound 0.01581 µM) was 0.773. For the same compound, the relative viability ([9]; first compound 0.05 µM) was 0.809, the relative viability ([9]; first compound 0.1581 µM) was 0.74 and the relative viability ([9]; first compound 0.5 µM) was 0.648. For the same compound, the relative viability ([10]; first compound 0.005 µM) was 0.869, the relative viability ([10]; first compound 0.01581 µM) was 0.875 and the relative viability ([10]; first compound 0.05 µM) was 0.869. It also gave a relative viability ([10]; first compound 0.1581 µM) of 0.846, a relative viability ([10]; first compound 0.5 µM) of 0.73 and a relative viability ([11]; first compound 0.005 µM) of 0.921. The relative viability ([11]; first compound 0.01581 µM) was 0.869, the relative viability ([11]; first compound 0.05 µM) was 0.799 and the relative viability ([11]; first compound 0.1581 µM) was 0.549. The relative viability ([11]; first compound 0.5 µM) was 0.541, the relative viability ([12]; first compound 0.005 µM) was 0.982 and the relative viability ([12]; first compound 0.01581 µM) was 1.03. It also gave a relative viability ([12]; first compound 0.05 µM) of 0.889, a relative viability ([12]; first compound 0.1581 µM) of 0.481 and a relative viability ([12]; first compound 0.5 µM) of 0.314. The relative viability ([13]; first compound 0.005 µM) was 1.01, the relative viability ([13]; first compound 0.01581 µM) was 1.03 and the relative viability ([13]; first compound 0.05 µM) was 1.1. For the same compound, the relative viability ([13]; first compound 0.1581 µM) was 0.922, the relative viability ([13]; first compound 0.5 µM) was 0.694 and the relative viability ([14]; first compound 0.005 µM) was 0.983. The relative viability ([14]; first compound 0.01581 µM) was 0.887, the relative viability ([14]; first compound 0.05 µM) was 0.798 and the relative viability ([14]; first compound 0.1581 µM) was 0.784. For the same compound, the relative viability ([14]; first compound 0.5 µM) was 0.676, the relative viability ([15]; first compound 0.005 µM) was 0.784 and the relative viability ([15]; first compound 0.01581 µM) was 0.414. It also gave a relative viability ([15]; first compound 0.05 µM) of 0.43, a relative viability ([15]; first compound 0.1581 µM) of 0.285 and a relative viability ([15]; first compound 0.5 µM) of 0.256. It also gave a relative viability ([16]; first compound 0.005 µM) of 1.02, a relative viability ([16]; first compound 0.01581 µM) of 0.908 and a relative viability ([16]; first compound 0.05 µM) of 0.747. The relative viability ([16]; first compound 0.1581 µM) was 0.618, the relative viability ([16]; first compound 0.5 µM) was 0.493 and the relative viability ([17]; first compound 0.005 µM) was 0.827. The relative viability ([17]; first compound 0.01581 µM) was 0.761, the relative viability ([17]; first compound 0.05 µM) was 0.677 and the relative viability ([17]; first compound 0.1581 µM) was 0.464. For the same compound, the relative viability ([17]; first compound 0.5 µM) was 0.336, the relative viability ([18]; first compound 0.005 µM) was 0.808 and the relative viability ([18]; first compound 0.01581 µM) was 0.914. The relative viability ([18]; first compound 0.05 µM) was 1.02, the relative viability ([18]; first compound 0.1581 µM) was 0.536 and the relative viability ([18]; first compound 0.5 µM) was 0.349. It also gave a relative viability ([19]; first compound 0.005 µM) of 0.855, a relative viability ([19]; first compound 0.01581 µM) of 0.787 and a relative viability ([19]; first compound 0.05 µM) of 0.735. For the same compound, the relative viability ([19]; first compound 0.1581 µM) was 0.545, the relative viability ([19]; first compound 0.5 µM) was 0.469 and the relative viability ([20]; first compound 0.005 µM) was 0.735. For the same compound, the relative viability ([20]; first compound 0.01581 µM) was 0.759, the relative viability ([20]; first compound 0.05 µM) was 0.538 and the relative viability ([20]; first compound 0.1581 µM) was 0.302. It also gave a relative viability ([20]; first compound 0.5 µM) of 0.23, a relative viability ([21]; first compound 0.005 µM) of 0.929 and a relative viability ([21]; first compound 0.01581 µM) of 0.688. For the same compound, the relative viability ([21]; first compound 0.05 µM) was 0.881, the relative viability ([21]; first compound 0.1581 µM) was 0.464 and the relative viability ([21]; first compound 0.5 µM) was 0.202. The relative viability ([22]; first compound 0.005 µM) was 0.688, the relative viability ([22]; first compound 0.01581 µM) was 0.569 and the relative viability ([22]; first compound 0.05 µM) was 0.329. The relative viability ([22]; first compound 0.1581 µM) was 0.21 and the relative viability ([22]; first compound 0.5 µM) was 0.114.
